# From ChEMBL document CHEMBL5154706, “Synthesis of lathyrane diterpenoid nitrogen-containing heterocyclic derivatives and evaluation of their anti-inflammatory activities” (Bioorg Med Chem, 2022)
# The source made the active and inactive calls. The calls are words filed in the database; no cut-off is given here.
# Tested on: RAW264.7
# Assay: Antiinflammatory activity against mouse RAW264.7 cells assessed as inhibition of LPS-induced NO production preincubated for 3 hrs followed by LPS stimulation and measured after 24 hrs by Griess reagent based assay
# Type: functional, cell-based
# Settings: not given
row,SMILES,IC50 [µM]
1,C=C1CC[C@H]2[C@@H](/C=C(\C)C(=O)[C@@]3(OC(C)=O)C[C@H](C)[C@H](OC(=O)c4ccccc4)[C@@H]3[C@H]1OC(C)=O)C2(C)C,8.06
2,C=C1CC[C@H]2[C@@H](/C=C(\C)C(=O)[C@@]3(O)C[C@H](C)[C@H](O)[C@@H]3[C@H]1OC(=O)c1cnc(NC(=O)C3CCCCC3)s1)C2(C)C,5.53
3,C=C1CC[C@H]2[C@@H](/C=C(\C)C(=O)[C@@]3(O)C[C@H](C)[C@H](O)[C@@H]3[C@H]1OC(=O)c1cn(CC)nc1-c1ccc(C)cc1)C2(C)C,7.73
4,C=C1CC[C@H]2[C@@H](/C=C(\C)C(=O)[C@@]3(O)C[C@H](C)[C@H](O)[C@@H]3[C@H]1OC(=O)c1cnc(NC(=O)c3ccccc3)s1)C2(C)C,7.03
5,C=C1CC[C@H]2[C@@H](/C=C(\C)C(=O)[C@@]3(O)C[C@H](C)[C@H](O)[C@@H]3[C@H]1OC(=O)c1cn(CC)nc1-c1ccc(C(F)(F)F)cc1)C2(C)C,7.8
6,CCn1cc(C(=O)O[C@@H]2[C@H]3[C@@H](O)[C@@H](C)C[C@]3(O)C(=O)/C(C)=C/[C@@H]3[C@H](CC[C@]24CO4)C3(C)C)c(-c2ccc(C(F)(F)F)cc2)n1,10.6
7,CCn1cc(C(=O)O[C@@H]2[C@H]3[C@@H](O)[C@@H](C)C[C@]3(O)C(=O)/C(C)=C/[C@@H]3[C@H](CC[C@]24CO4)C3(C)C)c(-c2ccc(F)cc2)n1,13.3
8,C=C1CC[C@H]2[C@@H](/C=C(\C)C(=O)[C@@]3(O)C[C@H](C)[C@H](O)[C@@H]3[C@H]1OC(=O)c1cn(-c3ccccc3)nc1-c1ccc(F)cc1)C2(C)C,10.8
9,CCn1cc(C(=O)O[C@@H]2[C@H]3[C@@H](O)[C@@H](C)C[C@]3(O)C(=O)/C(C)=C/[C@@H]3[C@H](CC[C@]24CO4)C3(C)C)c(-c2ccc(Cl)cc2)n1,15.7
10,C=C1CC[C@H]2[C@@H](/C=C(\C)C(=O)[C@@]3(O)C[C@H](C)[C@H](O)[C@@H]3[C@H]1O)C2(C)C,11.1
11,CC(=O)Nc1ncc(C(=O)O[C@@H]2[C@H]3[C@@H](O)[C@@H](C)C[C@]3(O)C(=O)/C(C)=C/[C@@H]3[C@H](CC[C@]24CO4)C3(C)C)s1,> 20
12,C=C1CC[C@H]2[C@@H](/C=C(\C)C(=O)[C@@]3(O)C[C@H](C)[C@H](O)[C@@H]3[C@H]1OC(=O)c1cn(-c3ccccc3)nc1-c1ccc(C)cc1)C2(C)C,> 20
13,C=C1CC[C@H]2[C@@H](/C=C(\C)C(=O)[C@@]3(O)C[C@H](C)[C@H](O)[C@@H]3[C@H]1OC(=O)c1cn(CC)nc1-c1ccc(Cl)cc1)C2(C)C,5.84
14,CCn1cc(C(=O)O[C@@H]2[C@H]3[C@@H](O)[C@@H](C)C[C@]3(O)C(=O)/C(C)=C/[C@@H]3[C@H](CC[C@]24CO4)C3(C)C)c(-c2ccc(N(C)C)cc2)n1,> 20
15,C=C1CC[C@H]2[C@@H](/C=C(\C)C(=O)[C@@]3(O)C[C@H](C)[C@H](O)[C@@H]3[C@H]1OC(=O)c1cn(-c3ccccc3)nc1-c1ccc(C(F)(F)F)cc1)C2(C)C,11.2
16,C=C1CC[C@H]2[C@@H](/C=C(\C)C(=O)[C@@]3(O)C[C@H](C)[C@H](O)[C@@H]3[C@H]1OC(=O)c1cn(CC)nc1-c1ccc(F)cc1)C2(C)C,> 20
17,C/C1=C\[C@@H]2[C@H](CC[C@]3(CO3)[C@H](OC(=O)c3cnc(NC(=O)C4CCCCC4)s3)[C@H]3[C@@H](O)[C@@H](C)C[C@]3(O)C1=O)C2(C)C,1.49
18,C/C1=C\[C@@H]2[C@H](CC[C@]3(CO3)[C@H](O)[C@H]3[C@@H](O)[C@@H](C)C[C@]3(O)C1=O)C2(C)C,25.6
19,C=C1CC[C@H]2[C@@H](/C=C(\C)C(=O)[C@@]3(O)C[C@H](C)[C@H](O)[C@@H]3[C@H]1OC(=O)c1cn(-c3ccccc3)nc1-c1ccc(OC)cc1)C2(C)C,> 20
20,C=C1CC[C@H]2[C@@H](/C=C(\C)C(=O)[C@@]3(O)C[C@H](C)[C@H](O)[C@@H]3[C@H]1OC(=O)c1cn(-c3ccccc3)nc1-c1ccc(Cl)cc1)C2(C)C,> 20
21,C=C1CC[C@H]2[C@@H](/C=C(\C)C(=O)[C@@]3(O)C[C@H](C)[C@H](O)[C@@H]3[C@H]1OC(=O)c1cn(-c3ccccc3)nc1-c1ccc(N(C)C)cc1)C2(C)C,> 20
22,C=C1CC[C@H]2[C@@H](/C=C(\C)C(=O)[C@@]3(O)C[C@H](C)[C@H](O)[C@@H]3[C@H]1OC(=O)c1cnc(NC(C)=O)s1)C2(C)C,> 20
23,C=C1CC[C@H]2[C@@H](/C=C(\C)C(=O)[C@@]3(O)C[C@H](C)[C@H](O)[C@@H]3[C@H]1OC(=O)CCN1C(=O)CS/C1=N\c1ccccc1)C2(C)C,8.24
24,C=C1CC[C@H]2[C@@H](/C=C(\C)C(=O)[C@@]3(O)C[C@H](C)[C@H](O)[C@@H]3[C@H]1OC(=O)c1cnc(NC(=O)/C=C/c3ccccc3)s1)C2(C)C,> 20

# Second part, the molecule after the results:
row,IC50 [µM],SMILES
1,2.61,C/C1=C\[C@@H]2[C@H](CC[C@]3(CO3)[C@H](OC(=O)CCC(=O)OCc3ccc(COc4no[n+]([O-])c4S(=O)(=O)c4ccccc4)cc3)[C@H]3[C@@H](O)[C@@H](C)C[C@]3(O)C1=O)C2(C)C
2,10.6,C/C1=C\[C@@H]2[C@H](CC[C@]3(CO3)[C@H](OC(=O)c3cn(-c4ccccc4)nc3-c3ccc(F)cc3)[C@H]3[C@@H](O)[C@@H](C)C[C@]3(O)C1=O)C2(C)C
3,0.85,C=C1CC[C@H]2[C@@H](/C=C(\C)C(=O)[C@@]3(O)C[C@H](C)[C@H](O)[C@@H]3[C@H]1OC(=O)CCC(=O)OCC#CCOc1no[n+]([O-])c1S(=O)(=O)c1ccccc1)C2(C)C
4,> 20,CCn1cc(C(=O)O[C@@H]2[C@H]3[C@@H](O)[C@@H](C)C[C@]3(O)C(=O)/C(C)=C/[C@@H]3[C@H](CC[C@]24CO4)C3(C)C)c(-c2ccc(C)cc2)n1
5,10.9,C/C1=C\[C@@H]2[C@H](CC[C@]3(CO3)[C@H](OC(=O)c3cnc(NC(=O)c4ccccc4)s3)[C@H]3[C@@H](O)[C@@H](C)C[C@]3(O)C1=O)C2(C)C
6,> 20,C/C1=C\[C@@H]2[C@H](CC[C@]3(CO3)[C@H](OC(=O)c3cn(-c4ccccc4)nc3-c3ccc(C)cc3)[C@H]3[C@@H](O)[C@@H](C)C[C@]3(O)C1=O)C2(C)C
7,1.19,C=C1CC[C@H]2[C@@H](/C=C(\C)C(=O)[C@@]3(O)C[C@H](C)[C@H](O)[C@@H]3[C@H]1OC(=O)CCC(=O)NCCOc1no[n+]([O-])c1S(=O)(=O)c1ccccc1)C2(C)C
8,3.38,C/C1=C\[C@@H]2[C@H](CC[C@]3(CO3)[C@H](OC(=O)CCC(=O)OCCOCCOc3no[n+]([O-])c3S(=O)(=O)c3ccccc3)[C@H]3[C@@H](O)[C@@H](C)C[C@]3(O)C1=O)C2(C)C
9,1.43,C/C1=C\[C@@H]2[C@H](CC[C@]3(CO3)[C@H](OC(=O)CCC(=O)NCCOc3no[n+]([O-])c3S(=O)(=O)c3ccccc3)[C@H]3[C@@H](O)[C@@H](C)C[C@]3(O)C1=O)C2(C)C
10,1.82,C/C1=C\[C@@H]2[C@H](CC[C@]3(CO3)[C@H](OC(=O)CCC(=O)OCCCCOc3no[n+]([O-])c3S(=O)(=O)c3ccccc3)[C@H]3[C@@H](O)[C@@H](C)C[C@]3(O)C1=O)C2(C)C
11,1,C/C1=C\[C@@H]2[C@H](CC[C@]3(CO3)[C@H](OC(=O)CCC(=O)OCC#CCOc3no[n+]([O-])c3S(=O)(=O)c3ccccc3)[C@H]3[C@@H](O)[C@@H](C)C[C@]3(O)C1=O)C2(C)C
12,1.55,C=C1CC[C@H]2[C@@H](/C=C(\C)C(=O)[C@@]3(O)C[C@H](C)[C@H](O)[C@@H]3[C@H]1OC(=O)CCC(=O)OCCCCOc1no[n+]([O-])c1S(=O)(=O)c1ccccc1)C2(C)C
13,5.47,C=C1CC[C@H]2[C@@H](/C=C(\C)C(=O)[C@@]3(O)C[C@H](C)[C@H](O)[C@@H]3[C@H]1OC(=O)CCC(=O)OCc1c(-c3ccccc3)no[n+]1[O-])C2(C)C
14,5.36,C=C1CC[C@H]2[C@@H](/C=C(\C)C(=O)[C@@]3(O)C[C@H](C)[C@H](O)[C@@H]3[C@H]1OC(=O)CCC(=O)OCc1ccc(COc3no[n+]([O-])c3S(=O)(=O)c3ccccc3)cc1)C2(C)C
15,> 20,C/C1=C\[C@@H]2[C@H](CC[C@]3(CO3)[C@H](OC(=O)CCN3C(=O)CS/C3=N\c3ccccc3)[C@H]3[C@@H](O)[C@@H](C)C[C@]3(O)C1=O)C2(C)C
16,> 20,C/C1=C\[C@@H]2[C@H](CC[C@]3(CO3)[C@H](OC(=O)c3cn(-c4ccccc4)nc3-c3ccc(N(C)C)cc3)[C@H]3[C@@H](O)[C@@H](C)C[C@]3(O)C1=O)C2(C)C
17,> 20,C/C1=C\[C@@H]2[C@H](CC[C@]3(CO3)[C@H](OC(=O)c3cn(-c4ccccc4)nc3-c3ccc(Cl)cc3)[C@H]3[C@@H](O)[C@@H](C)C[C@]3(O)C1=O)C2(C)C
18,9.38,C/C1=C\[C@@H]2[C@H](CC[C@]3(CO3)[C@H](OC(=O)CCC(=O)OCc3c(-c4ccccc4)no[n+]3[O-])[C@H]3[C@@H](O)[C@@H](C)C[C@]3(O)C1=O)C2(C)C
19,> 20,C/C1=C\[C@@H]2[C@H](CC[C@]3(CO3)[C@H](OC(=O)c3cnc(NC(=O)/C=C/c4ccccc4)s3)[C@H]3[C@@H](O)[C@@H](C)C[C@]3(O)C1=O)C2(C)C

# Tested on: RAW264.7
# Assay: Antiinflammatory activity against mouse RAW264.7 cells assessed as inhibition of LPS-induced ROS generation at […] preincubated for 3 hrs followed by LPS stimulation and measured after 12 hrs by DCFH-DA probe based flow cytometry
# Type: functional, cell-based
# Settings: time 15.0 hrs
row,SMILES,inhibition
1,CC(=O)N[C@@H](CS)C(=O)O,Active
